Assay results reported in patent US11464749B2, “Bismuth-thiol compositions and methods of use” (Microbion Corporation, priority 2018, dated 2022).
Converted amounts (≈) assume the structure as drawn.

Assays:
[1] = system: Staphylococcus aureus (MRSA); assay: Broth microdilution MIC (Example 11)
E. faecalis = assay: Broth microdilution MIC (Example 11); conditions: Enterococcus faecalis, VRE, VRE Lev^R Cip^R Ery^R
S. pneumoniae = assay: Broth microdilution MIC (Example 11); conditions: Streptococcus pneumoniae
S. pyogenes = assay: Broth microdilution MIC (Example 11); conditions: Streptococcus pyogenes
S. agalactiae = assay: Broth microdilution MIC (Example 11); conditions: Streptococcus agalactiae
[2] = system: vancomycin-intermediate Staphylococcus aureus (VISA); assay: Broth microdilution MIC (Example 12); conditions: Staphylococcus aureus, NRS13 / VISA, read-out: MIC values
[3] = MRSA, S. aureus MMX 6311, MRSA Lev^R Cip^R CC^R Ery^R Ox^R
[4] = ATCC29213|MRSA|MSSA, S. aureus MMX 101 (ATCC 29213), QC, MSSA
[5] = MRSA, S. aureus MMX 5373, MRSA Lev^R Cip^R CC^R Ery^R Ox^R
[6] = MRSA, S. aureus MMX 9203, MRSA Lev^R Cip^R Ery^R Ox^R
[7] = MRSA, S. aureus MMX 9204, MRSA Lev^R Cip^R Ery^R Ox^R
[8] = MRSA, S. aureus MMX 9205, MRSA Lev^R Cip^R CC^R Ery^R Ox^R
[9] = ATCC49619, S. pneumoniae MMX 6837 (ATCC 49619), QC
[10] = S. pneumoniae MMX 880, Lev^R SXT^R CC^R Ery^R Pen^R
[11] = S. pneumoniae MMX 937, Mem^R SXT^R CC^R Ery^R Pen^R
[12] = S. pneumoniae MMX 3959, CC^R Ery^R
[13] = S. pneumoniae MMX 5440, Mem^R SXT^R CC^R Ery^R Pen^R
[14] = S. pneumoniae MMX 5445, Mem^R SXT^R CC^R Ery^R Pen^R
[15] = S. pneumoniae MMX 8133, Mem^R SXT^R CC^R Ery^R Pen^R
[16] = S. agalactiae MMX 3741, ERY^R CC^R
[17] = S. agalactiae MMX 3743, ERY^R CC^R
[18] = S. agalactiae MMX 4077, ERY^R CC^R
[19] = S. agalactiae MMX 4079, ERY^R CC^R Pen^R MEM^R
[20] = S. agalactiae MMX 4086, ERY^R CC^R

Structure (SMILES) | MIC [1, 3] [µg/mL] | MIC (E. faecalis; E. faecalis MMX 8962) [µg/mL] | MIC [1, 4] [µg/mL] | MIC [1, 5] [µg/mL] | MIC [1, 6] [µg/mL] | MIC [1, 7] [µg/mL] | MIC [1, 8] [µg/mL] | MIC (S. pneumoniae; [9]) [µg/mL] | MIC (S. pneumoniae; [10]) [µg/mL] | MIC (S. pneumoniae; [11]) [µg/mL] | MIC (S. pneumoniae; [12]) [µg/mL] | MIC (S. pneumoniae; [13]) [µg/mL] | MIC (S. pneumoniae; [14]) [µg/mL] | MIC (S. pneumoniae; [15]) [µg/mL] | MIC (S. agalactiae; [16]) [µg/mL] | MIC (S. agalactiae; [17]) [µg/mL] | MIC (S. agalactiae; [18]) [µg/mL] | MIC (S. agalactiae; [19]) [µg/mL] | MIC (S. agalactiae; [20]) [µg/mL] | other results
Cc1onc(-c2ccccc2)c1C(=O)N[C@@H]1C(=O)N2[C@@H]1SC(C)(C)[C@@H]2C(=O)O [Oxacillin] | 32 (≈ 79.7 µM) | 16 (≈ 39.9 µM) |  |  |  |  |  |  |  |  |  |  |  |  |  |  |  |  |  | 
CN[C@H](CC(C)C)C(=O)N[C@H]1C(=O)N[C@@H](CC(N)=O)C(=O)N[C@H]2C(=O)N[C@H]3C(=O)N[C@H](C(=O)N[C@H](C(=O)O)c4cc(O)cc(O)c4-c4cc3ccc4O)[C@H](O)c3ccc(c(Cl)c3)Oc3cc2cc(c3O[C@@H]2O[C@H](CO)[C@@H](O)[C@H](O)[C@H]2O[C@H]2C[C@](C)(N)[C@H](O)[C@H](C)O2)Oc2ccc(cc2Cl)[C@H]1O [vancomycin] | 0.25 (≈ 0.173 µM) |  | 1 (≈ 0.69 µM) | 2 (≈ 1.38 µM) | 2 (≈ 1.38 µM) | 1 (≈ 0.69 µM) | 2 (≈ 1.38 µM) | 0.25 (≈ 0.173 µM) | 0.5 (≈ 0.345 µM) | 0.5 (≈ 0.345 µM) | 0.5 (≈ 0.345 µM) | 0.25 (≈ 0.173 µM) | 0.25 (≈ 0.173 µM) | 0.25 (≈ 0.173 µM) | 0.5 (≈ 0.345 µM) | 0.5 (≈ 0.345 µM) | 0.5 (≈ 0.345 µM) | 2 (≈ 1.38 µM) | 1 (≈ 0.69 µM) | MIC (S. pyogenes): 0.5 µg/mL (≈ 0.345 µM); MIC [2]: 2 µg/mL (≈ 1.38 µM)
CC[C@H]1OC(=O)[C@H](C)[C@@H](O[C@H]2C[C@@](C)(OC)[C@@H](O)[C@H](C)O2)[C@H](C)[C@@H](O[C@@H]2O[C@H](C)C[C@H](N(C)C)[C@H]2O)[C@](C)(O)C[C@@H](C)C(=O)[C@H](C)[C@@H](O)[C@]1(C)O [Erythromycin] | > 64 | > 64 | 0.5 (≈ 0.681 µM) | > 64 | > 64 | > 64 | > 64 | 0.03 (≈ 0.0409 µM) | > 8 | > 8 | > 8 | > 8 | > 8 | > 8 | 8 (≈ 10.9 µM) | > 8 | > 8 | > 8 | > 8 | MIC (E. faecalis; E. faecalis MMX 8960): > 64 µg/mL; MIC (E. faecalis; E. faecalis MMX 8961): > 64 µg/mL; MIC (S. pyogenes; S. pyogenes MMX 3068, Ery^R): > 8 µg/mL; MIC (S. pyogenes; S. pyogenes MMX 3820, ERY^R CLI^R): > 8 µg/mL; MIC (S. pyogenes; S. pyogenes MMX 3919, ERY^R): > 8 µg/mL; MIC (S. pyogenes; S. pyogenes MMX 3929, ERY^R CC^R): > 8 µg/mL; MIC (S. pyogenes; S. pyogenes MMX 5091, ERY^R CC^R): > 8 µg/mL
